# Laboratory results reported in patent publication US8420598B2, “Mono modified exendin with polyethylene glycol or its derivatives and uses thereof” (B & L Delipharm Corp., priority 2007, dated 2013).
# Like-named read-outs stand apart in the source and are kept apart here.
# Experiments:
# [1] = test system: db/db mice; assay: Animal model test: oral glucose tolerance after s.c. injection; assay type: in vivo; details: 1 nmol/kg s.c. 30 min before oral glucose, FIG. 8
# Description: 30 min before, at the time of, and 15, 30, 60, 120 and 180 min after the oral administration of glucose, blood samples were taken from the tail vein and monitored for glucose level.
# [2] = rat, in vivo, sc
# Description: SD rats weighing 200 g were subcutaneously injected with samples at a dose of 1 nmol/rat (4.18 μg/rat), followed by sampling blood through a tube inserted into the jugular vein. The blood samples were monitored for drug level using an ELISA kit.
# [3] = test system: pancreatic islet cells of Sprague Dawley rats; assay: Assay for promoting insulin secretion (insulin ELISA); assay type: cell-based; details: for EC50 / insulin secretory capacity: rat islet cells, 0.1-100 nM; for EC50: 16.7 mM glucose, 2 hours; for insulin secretory capacity: FIG. 5
# Description: Cells used for this assay were pancreatic islet cells of Sprague Dawley rats, which could be isolated by collagenase digestion and then Ficoll gradient centrifugation. After being cultured for 2˜3 days in an incubator, the isolated pancreatic islet cells were suspended in 1 ml of KRH buffer (16.7 mM glucose) at a density of 20 cells per well into 24-well plates. […] Then, […] of the culture was taken from each well and analyzed for insulin level using an insulin ELISA kit.
# [4] = test system: db/db mice; assay: Measurement of anti-diabetic activity in animals (blood glucose monitoring); assay type: in vivo; details: for time blood glucose kept at normal levels (<150 mg/dL) after injection: s.c., same dosage, db/db mice
# [5] = rat, in vivo, iv
substance,measurement,setting,value
"Lys^27-PEG2k-exendin-4: exendin-4 modified at lysine-27 with 2 kDa PEG (mPEG-SPA), Example 2",activity by area under the glucose curve 0 to 180 min,[1],activity similar to that of natural exendin-4
same,time to reach basal line (<2 ng/mL) after administration,[2],4 h
same,EC50,[3],3.11 nM
same,insulin secretory capacity,[3],"superior to that of the other modified exendin-4, and similar to that of natural exendin-4"
same,time blood glucose kept at normal levels (<150 mg/dL) after injection,[4],about 6 hours
"N^ter-PEG2k-exendin-4: exendin-4 modified at the N-terminus with 2 kDa mPEG-propionaldehyde, Example 1",activity by area under the glucose curve 0 to 180 min,[1],low effects
same,EC50,[3],136 nM
same,insulin secretory capacity,[3],low insulin secretory capacity
"PEG5k-exendin-4: exendin-4 modified at lysine-27 with 5 kDa mPEG-SPA, Example 2",time blood glucose kept at normal levels (<150 mg/dL) after injection,[4],12 h
"PEG10k-exendin-4: exendin-4 modified at lysine-27 with 10 kDa mPEG-SPA, Example 2",time blood glucose kept at normal levels (<150 mg/dL) after injection,[4],18 h
"PEG20k-Exendin-4 (bi-branched): exendin-4 modified with 20 kDa bi-branched PEG, Example 3",AUC,[5],5717 ± 1015 ng·h/mL
same,Elimination Half Life,[5],28.0 ± 10.4 h
same,Volume of Distribution,[5],25.45 ± 16.84 mL
same,time blood glucose kept at normal levels (<150 mg/dL) after injection,[4],about 8 hours
"PEG20k-exendin-4: exendin-4 modified at lysine-27 with 20 kDa mPEG-SPA, Example 2",Elimination Half Life,[2],22.0 ± 1.7 h
same,residual activity (insulin secretion),"[3]; 10 nM, relative to natural exendin-4, FIG. 9",≥ 40%
same,time blood glucose kept at normal levels (<150 mg/dL) after injection,[4],about 36 hours
"PEG23k-Exendin-4 (tri-branched): exendin-4 modified at lysine-27 with 23 kDa tri-branched PEG, Example 3",AUC,[5],7659 ± 1365 ng·h/mL
same,Elimination Half Life,[5],25.1 ± 9.1 h
same,Volume of Distribution,[5],9.41 ± 1.57 mL
same,"promotion of insulin secretion, dose dependence","[3]; 0.1, 1, 10 and 100 nM, FIG. 16",promote insulin secretion in a dose-dependent manner
same,duration of medicinal efficacy,[4]; dose of 5 nmol/kg,12 to 18 h
same,duration of medicinal efficacy,[4]; dose of 10 nmol/kg,36 to 48 h
same,duration of medicinal efficacy,[4]; dose of 20 nmol/kg,72 to 96 h
same,duration of useful medicinal effects,[4]; dose of 50 nmol/kg,≤ 120 h
